Laboratory results published in article PMC3734253, “A Novel Color Change Mechanism for Breast Cancer Biomarker Detection: Naphthoquinones as Specific Ligands of Human Arylamine N-Acetyltransferase 1” (PLoS ONE, 2013).

Tests used:
[1] = target: T1, hNAT1 (human arylamine N-acetyltransferase 1) (Homo sapiens, UniProt P18440); assay: AcCoA hydrolysis assay, inhibition of hNAT1; type: biochemical; conditions: for IC50: pABA 500 μM, AcCoA 400 μM, pH 8.0, 5% DMSO
T1 construct: made in house
T1 sequence (P18440 1-290): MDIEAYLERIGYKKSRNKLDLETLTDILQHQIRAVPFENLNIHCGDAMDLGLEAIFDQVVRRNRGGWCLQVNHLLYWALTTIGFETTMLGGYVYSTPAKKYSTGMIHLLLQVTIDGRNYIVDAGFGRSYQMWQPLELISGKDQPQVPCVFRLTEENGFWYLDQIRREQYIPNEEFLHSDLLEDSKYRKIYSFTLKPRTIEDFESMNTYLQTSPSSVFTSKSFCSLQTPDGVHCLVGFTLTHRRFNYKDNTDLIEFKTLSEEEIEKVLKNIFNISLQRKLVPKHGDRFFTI
Experimental: (§1) NAT activity was determined as previously described,[23]; a full procedure is outlined in the (File S1).
(§2) NAT activity was determined by AcCoA hydrolysis assays. The NAT isoform (100 ng) was pre-incubated with para-amino benzoic acid (500 μM) in the assay buffer (5% DMSO/95% 20mM aq Tris.HCl, pH 8.0) for 5 min. at 37 °C in a 96-well plate (Corning). Pre-warmed AcCoA (400 μM, 37 °C) in assay buffer was added to start the reaction (final volume of 100 μL), which was allowed to proceed at 37 °C. Simultaneous quenching and color development was achieved by addition of 25 μL DTNB solution (5 mM DTNB in 100 mM aq Tris.HCl, 6.4 M guanidine.HCl, pH 7.5). The absorbance was immediately read at 405 nm using a plate reader (Tecan Sunrise). The rate of reaction was determined by reference to a standard curve and controls with buffer alone were carried out. For detection of inhibition, the inhibitors tested were dissolved in DMSO and the final percentage of DMSO in the assay was 5% (v/v). […] A dose-response function was used as a model of regression for the data and the curves were estimated by the method of the least squares analysis.

mNat2 [2] = target: T2, mNat2 (Mus musculus, UniProt P50295); assay: AcCoA hydrolysis assay, inhibition of mNat2 (wild type); type: biochemical; conditions: for IC50: mNat2_WT, pABA 500 μM, AcCoA 400 μM, pH 8.0, 5% DMSO
T2 construct: hexa-histidine tag (cleaved yes); made in house; host or cells: E. coli Rosetta(DE3)pLysS
T2 sequence (P50295 1-290): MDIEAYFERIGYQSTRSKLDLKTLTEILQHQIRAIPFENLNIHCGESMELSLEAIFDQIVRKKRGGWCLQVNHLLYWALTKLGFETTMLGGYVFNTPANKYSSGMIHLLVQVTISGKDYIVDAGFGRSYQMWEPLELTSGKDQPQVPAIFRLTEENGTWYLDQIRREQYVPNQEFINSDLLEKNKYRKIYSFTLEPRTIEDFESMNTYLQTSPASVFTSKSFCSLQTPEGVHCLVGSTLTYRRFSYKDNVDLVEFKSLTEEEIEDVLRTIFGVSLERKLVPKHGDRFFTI

mNat2 [3] = target: T2, mNat2; assay: Visible spectrum of compound in presence of mNat2; type: binding; conditions: with mNat2, 20 mM Tris.HCl pH 8
Experimental: (§3) Visible spectra of each compound were recorded with a U-2001 spectrophotometer (Hitachi) using 1 mL plastic cells of 1 cm path-length (FisherBrand) or 50 μL UVettes® (Eppendorf). Concentrations of inhibitors and protein used are given in the appropriate figure legends. All spectra were blank-corrected.
(§4) 15 μM compound 4 was prepared using different conditions: 20 mM aq Tris.HCl, pH 8, 5% DMSO (v/v); 80 mM aq NaOH, pH 13.75, 5% DMSO (v/v); with hNAT1 (30 μM) in 20 mM aq Tris.HCl, pH 8, 5% DMSO (v/v); with mNat2 (30 μM) 20 mM aq Tris.HCl, pH 8, 5% DMSO (v/v). Wavelength scans from 800 to 350 nm were recorded against the respective blanks containing no compound 4.
as §4, with “5” for “4”, “5.” for “4.”

hNAT1 = target: T3, hNAT1 (Homo sapiens, UniProt P18440); assay: Visible spectrum of compound in presence of hNAT1; type: binding; conditions: with hNAT1, 20 mM Tris.HCl pH 8
T3 construct: made in house
T3 sequence (P18440 1-290): T1 sequence (P18440 1-290)
Experimental: as §3, §4
as §4, with “5” for “4”, “5.” for “4.”

mNat1 [4] = target: T4, mNat1 (Mus musculus, UniProt P50294); assay: Visible spectrum of compound in presence of mNat1; type: binding; conditions: with mNat1
T4 construct: hexa-histidine tag (cleaved yes); made in house; host or cells: E. coli Rosetta(DE3)pLysS
T4 sequence (P50294 1-290): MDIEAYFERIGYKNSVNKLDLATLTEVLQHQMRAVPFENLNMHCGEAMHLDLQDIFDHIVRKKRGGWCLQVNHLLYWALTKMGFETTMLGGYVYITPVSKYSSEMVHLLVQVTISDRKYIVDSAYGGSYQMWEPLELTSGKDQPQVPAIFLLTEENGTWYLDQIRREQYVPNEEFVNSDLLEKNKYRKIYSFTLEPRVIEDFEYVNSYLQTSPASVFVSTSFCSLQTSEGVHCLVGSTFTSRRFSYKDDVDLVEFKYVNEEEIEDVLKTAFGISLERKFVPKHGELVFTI
Experimental: as §3

mNat1 [5] = target: T4, mNat1; assay: AcCoA hydrolysis assay, inhibition of mNat1; type: biochemical; conditions: enzyme mNat1, read-out: % Inhibition at 30 μM of 1
Experimental: as §1, §2

[6] = Acid-base (pH) titration by visible spectra; type: physicochemical; conditions: panel of buffered solutions at diverse pHs with 5% DMSO; 5% DMSO/95% H2O
Experimental: 5 μL of 1 in DMSO (final concentration 0.1 mM) was added to 95 μL of a panel of solutions buffered at diverse pHs in a flat-bottomed 96-well plate (Corning). Visible spectra of the samples were recorded from 800 to 350 nm on the FLUOstar Omega plate reader (BMG Labtech), then the λmax were determined for all spectra and plotted against pH. A sigmoidal titration curve was fitted using GraphPad®.

hNAT2 [7] = target: T5, hNAT2 (Homo sapiens, UniProt P11245); assay: AcCoA hydrolysis assay, inhibition of hNAT2; type: biochemical; conditions: for enzyme activity retained: hNAT2, inhibitor concentration 30 µM
T5 sequence (P11245 1-290): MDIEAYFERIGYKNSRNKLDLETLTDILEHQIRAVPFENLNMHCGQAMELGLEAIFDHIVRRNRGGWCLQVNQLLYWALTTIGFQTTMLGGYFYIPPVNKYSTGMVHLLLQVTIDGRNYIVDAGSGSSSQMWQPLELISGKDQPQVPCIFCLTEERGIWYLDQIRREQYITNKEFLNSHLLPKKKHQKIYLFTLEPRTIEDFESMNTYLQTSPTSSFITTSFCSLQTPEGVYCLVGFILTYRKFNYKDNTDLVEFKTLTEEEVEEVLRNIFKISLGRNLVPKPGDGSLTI
Experimental: as §1, §2

hNAT2 [8] = target: T5, hNAT2; assay: Visible spectrum of compound in presence of hNAT2; type: binding; conditions: with hNAT2
Experimental: as §3

[9] = Solubility under NMR conditions for active protein; type: physicochemical; conditions: 5% DMSO-d6/95% D2O, for 15N-NMR

Compound	IC50 [1] [µM]	IC50 (mNat2 [2]) [µM]	λmax in presence of mNat2 (mNat2 [3]) [nm]	λmax in presence of hNAT1 (hNAT1) [nm]	enzyme activity retained (hNAT2 [7])	other results
Cc1cc(C)cc(NC2=C([15NH]S(=O)(=O)c3ccccc3)C(=O)c3ccccc3C2=O)c1 [compound 2, N-(3-(3’’,5’’-Dimethylphenylamino)-1,4-dioxo-1,4-dihydronaphthalen-2-yl)^15N-benzenesulfonamide]	–	–	–	–	–	solubility [9]: insufficiently soluble
Cc1cc(C)cc(NC2=C(N(C)S(=O)(=O)c3ccccc3)C(=O)c3ccccc3C2=O)c1 [compound 3, N-(3-(3’’,5’’-Dimethylphenylamino)-1,4-dioxo-1,4-dihydronaphthalen-2-yl)-N-methylbenzenesulfonamide]	–	–	490	476	more than 90%	–

Further lines, with some results ahead:

IC50 [1] [µM]	IC50 (mNat2 [2]) [µM]	λmax in presence of mNat2 (mNat2 [3]) [nm]	λmax in presence of hNAT1 (hNAT1) [nm]	enzyme activity retained (hNAT2 [7])	Compound	other results
93	> 150	492	492	–	Cc1cc(C)cc(NC2=C(OS(=O)(=O)c3ccccc3)C(=O)c3ccccc3C2=O)c1 [compound 5, 3-((3’’,5’’-Dimethylphenyl)amino)-1,4-dioxo-1,4-dihydronaphthalen-2-ylbenzenesulfonate]	–
5.3	1.9	625	585	–	Cc1cc(C)cc(NC2=C(NS(=O)(=O)c3ccccc3)C(=O)c3ccccc3C2=O)c1 [compound 1, N-(3-(3’’,5’’-Dimethylphenylamino)-1,4-dioxo-1,4-dihydronaphthalen-2-yl)benzenesulfonamide]	λmax in presence of mNat1 (mNat1 [4]): 498 nm; inhibition at 30 µM (mNat1 [5]): 37.6 ± 1.6%; inhibition at 30 µM ([1]; 30 μM, enzyme hNAT1): 93.3 ± 0.9%; pKa [6]: ~9.2; inhibition at 30 µM (hNAT2 [7]; 30 μM, enzyme hNAT2, read-out: % Inhibition at 30 μM of 1): 10.6 ± 2%; inhibition at 30 µM (mNat2 [2]; 30 μM, enzyme mNat2, read-out: % Inhibition at 30 μM of 1): 92.4 ± 4.4%; Ki (mNat2 [2]; competitive towards pABA (25-250 µM), AcCoA 400 µM, 9 ng pure recombinant mNat2, Dixon plot, read-out: Ki (app.)): 420 nM; λmax in presence of hNAT2 (hNAT2 [8]): 498 nm
3.6	14.6	548	–	more than 90%	COS(=O)(=NC1=C(Nc2cc(C)cc(C)c2)C(=O)c2ccccc2C1=O)c1ccccc1 (stereo not shown) [compound 4, Methyl-N-3-(3’’,5’’-dimethylphenylamino)-1,4-dioxo-1,4-dihydronaphthalen-2-ylbenzenesulfonimidate]	melting point: 71 to 74 °C
